These results are taken from patent publication US20040037897A1, “Treatment of drug resistant organisms” (priority 2000, published 2004).

The test system of this assay is Staphylococcus aureus organisms. The experiment in a line: In vitro tests of susceptibility to NO. It counts as cell-based.

Turning to `[N]=O` [NO, Nitric oxide], the “susceptibility to NO” value was “susceptible”.
